Reference: PubChem BioAssay AID743267 (Broad Institute, 2014)

These compounds were tested on human bronchial epithelial cells, CFTR corrector, plate reader (assay: CFTR ΔF508 corrector activity in bronchial cells, dose response, human bronchial epithelial cells, plate reader, cherry-pick, two tests (AID 743267)). Conditions: measured here: test 1 replicate run.

Row | SMILES | AC50
1 | COc1cccc(S(=O)(=O)N(C)C[C@@H]2Oc3cc(C4=CCCC4)ccc3S(=O)(=O)N([C@H](C)CO)C[C@H]2C)c1 | 16 µM
2 | CN1c2ccc(-c3ccc(F)cc3)cc2[C@H]2[C@H](CCN2S(=O)(=O)c2ccc(F)cc2)[C@H]1CO | 6.55 µM
3 | C[C@@H]1CN([C@@H](C)CO)C(=O)Cc2cc(NC(=O)Nc3cccc4ccccc34)ccc2O[C@@H]1CN(C)Cc1ccc(Cl)c(Cl)c1 | 2.12 µM
4 | C[C@@H]1CN([C@@H](C)CO)C(=O)Cc2cc(N(C)C)ccc2O[C@@H]1CN(C)Cc1ccccc1 | 3.78 µM

Same assay, conditions: measured here: test 2 replicate run

Row | SMILES | AC50
5 | CN(C)/C=C1\C=C2C(=O)c3ccccc3N2C1=O | 5.5 µM
6 | CCCC(=O)Nc1nc2ccc(NC(=O)c3c(F)c(F)c(OC)c(F)c3F)cc2s1 | 1.13 µM
7 | CC/C=C/CC(=O)N[C@@H](c1ccccc1)[C@@H](O)C(=O)O[C@H]1C[C@@]2(O)[C@@H](OC(=O)c3ccccc3)C3[C@](C)(C(=O)[C@H](OC(C)=O)C(=C1C)C2(C)C)[C@@H](O)C[C@H]1OC[C@@]31OC(C)=O (some centres not stated) | 3.4 µM
8 | Nc1ccc2ccc3cccc[n+]3c2c1 | 21.3 µM
9 | Cc1cccc(NC(=O)CN2CCN(C(=O)CN3C(=O)NC4(CC(C)CC(C)(C)C4)C3=O)CC2)c1C (configuration not stated) | 2.69 µM
10 | C/C(=N\NC(=O)c1cc(-c2cccs2)nc2ccccc12)c1ccccn1 | 2.45 µM
11 | CCC1=Nc2cc(C(=O)NCC3CCCO3)ccc2Sc2ccc(Cl)cc21 (configuration not stated) | 7.26 µM
12 | Cc1ccc(S(=O)(=O)N2C[C@H]3[C@H]4C(=O)N(C)C(=O)[C@H]4CC(=O)[C@H]3[C@@H]2c2ccccc2F)cc1 | 37.1 µM
13 | CC(=O)N1CCc2c(sc(NC(=O)c3ccc4c(c3)OCCO4)c2C#N)C1 | 7.74 µM
14 | Cc1cnc(NC(=O)CCc2ccccc2)s1 | 6.6 µM
15 | COc1cccc(/C=N/NC(=O)C(=O)N/N=C/c2cccc(OC)c2O)c1O | 40.1 µM
16 | Cc1nn2cc(-c3cccc(Cl)c3)cnc2c1Br | 3.81 µM
17 | COc1cccc(N2CCN(C(=O)c3ccc(CS(=O)c4ccc(C)cc4)o3)CC2)c1 (configuration not stated) | 0.539 µM
18 | CCSc1nnc(N2C(=O)C(O)=C(C(=O)c3ccco3)C2c2cccc(OC)c2)s1 (configuration not stated) | > 50 µM
19 | COc1cc(NC(=O)N2CCNC2=O)cc(C(=O)Nc2cccc(C(F)(F)F)c2)c1 | 5.11 µM
20 | Cc1ccc(N(C)S(=O)(=O)c2ccc(-c3cnc(C4CC4)o3)cc2)cc1 | 1.17 µM
21 | Cc1ccc(N2CC(C(=O)N(C)CC(=O)Nc3ccc(Cl)c(C(F)(F)F)c3)CC2=O)cc1 (configuration not stated) | 33.3 µM
22 | COc1ccc(Nc2nc(-c3sc(C)nc3C)cs2)cc1 | 0.272 µM
23 | CC(C)CN(CCCNC(=O)CN1C(=O)CSc2ccc(S(=O)(=O)N3CCOCC3)cc21)CC(C)C | > 50 µM
24 | CCN(CC)c1ccc(/C=C(/C#N)c2nc3ccc(C)cc3[nH]2)c(OC(C)C)c1 | 9.34 µM
25 | O=c1cc(-c2ccc(O)c(O)c2)oc2cc(O)cc(O)c12 | 29.3 µM
26 | CCc1ccc(-c2nc(C(N)=O)c3[nH]c(=O)n(-c4ccccc4OC)c3n2)cc1 | 1.33 µM
27 | Cc1cccc(C(=O)N(Cc2ccco2)c2c(N)n(Cc3ccccc3)c(=O)[nH]c2=O)c1 | > 50 µM
28 | C[C@@H](N)Cc1cnc[nH]1 | 20.1 µM
29 | CC1CCN(C(=O)c2ccc(S(=O)(=O)N3CCCC3)cc2)CC1 | > 50 µM

Row | SMILES | AC50
30 | Cc1cc(Br)cc(/C=N/NC(=O)c2ccc3c(c2)OCO3)c1O | 6.69 µM
31 | COc1cc(/C=C(\C#N)c2nc3ccccc3[nH]2)cc(OC)c1O | 7.88 µM
32 | O=C1NC(=Nc2cccnc2)S/C1=C/c1ccc(F)cc1 | 9.27 µM
33 | COc1cccc(/C=N/Nc2ncnc(Cl)c2N)c1O | 12.8 µM
34 | Cc1cc(/C=N/n2c(COc3ccccc3C)nc3ccccc3c2=O)c(O)c([N+](=O)[O-])c1 | 5.53 µM
35 | CCOC(=O)c1ccc(Nc2sc(C(=O)c3cccc([N+](=O)[O-])c3)c(N)c2C#N)cc1 | 1.84 µM
36 | COc1ccccc1Cc1c(-c2ccc(Cl)cc2)nc2ccc(Br)cn12 | 8.16 µM
37 | Cc1ccc2c(C)c3ccc4ccccc4c3c[n+]2c1 | 1.06 µM
38 | COc1ccc(/C=C2/CCCc3ccccc3C2=O)cc1 | 1.92 µM
39 | COC1C(C)OC(OC2CC(C)(O)Cc3cc4c(c(O)c32)C(=O)c2c(O)cc3c(c2C4=O)OC2OC3(C)C(O)C(N(C)C)C2O)C(OC)C1(C)OC (configuration not stated) | 14.3 µM
40 | COc1ccc2sc3cccc(NCCN(C)C)c3c(=O)c2c1 | 8.47 µM
41 | CCN(CC)C(=O)c1oc2ccc(S(=O)(=O)N3CC(C)CC(C)C3)cc2c1C (configuration not stated) | 10.5 µM
42 | COc1ccc([C@H]2CC(=O)C=C(c3c(OC)cccc3OC)C2)cc1 | 6.28 µM
43 | CCOC(=O)c1oc2ccc(S(=O)(=O)n3nc(-c4ccccc4)cc3N)cc2c1C | 6.82 µM
44 | COc1ccc(-c2cc(C(F)F)n3ncc(C(=O)N4CCc5ccccc54)c3n2)cc1 | 16.1 µM
45 | CC1CN(S(=O)(=O)c2cccc(C(=O)Nc3cc(Cl)ccc3N3CCOCC3)c2)CC(C)O1 (configuration not stated) | > 50 µM
46 | COc1ccc(CNCC(=O)Nc2ccccc2-n2cccc2)cc1 | 6.21 µM
47 | CN(C)S(=O)(=O)c1ccc2c(c1)/C(=C/c1cc3c([nH]1)CCCC3)C(=O)N2 | 6.59 µM
48 | NS(=O)(=O)c1ccc(CNc2ccc3ccccc3n2)cc1 | > 50 µM
49 | COc1ccccc1NS(=O)(=O)c1cc(N=N/C(C(=O)Nc2ccc(Cl)cc2)=C(/C)O)ccc1C | 36.6 µM
50 | COc1ccccc1C(=O)Nc1ccc2c(c1)nc(CCNC(=O)c1ccco1)n2C | 5.48 µM
51 | COc1c(O[C@@H]2O[C@H](CO)[C@@H](O)[C@H](O)[C@H]2O)cc2c(c1OC)-c1ccc(SC)c(=O)cc1C(NC(C)=O)CC2 (some centres not stated) | > 50 µM
52 | CCOC(=O)N1CCN(S(=O)(=O)c2ccc3c(c2)C(C)C(=O)N3)CC1 (configuration not stated) | > 50 µM
53 | CCOC(=O)N1CCC(NC(=O)c2ccc3c(c2)N=C(C)c2c(C)ccc(C)c2S3)CC1 | 1.67 µM
54 | CCN1/C(=C\c2ccc3cc(C)ccc3[n+]2CC)Sc2cc(C)c(C)cc21 | 9.9 µM

Row | SMILES | AC50
55 | O=C1c2cccc3c(N4CCCCC4)ccc(c23)C(=O)N1c1cccc(O)c1 | 24.3 µM
56 | CCN(CC)c1ccc(/C=N/NC(=O)c2ccco2)c(O)c1 | 2.3 µM
57 | CCN1/C(=C/c2ccc3cc(C)cc(C)c3[n+]2CC)Sc2cc(C)ccc21 | 12.4 µM
58 | O=C(N/N=C/c1c(O)ccc2ccccc12)C(=O)N1CCCC1 | 12.6 µM
59 | O=C(NCc1ccccc1)C1Cc2c(-c3ccc(Cl)cc3)ccnc2O1 (configuration not stated) | 2.18 µM
60 | CCN(C(=O)CSc1nc2ccccc2c(=O)n1-c1ccccc1F)C1CCS(=O)(=O)C1 (configuration not stated) | 0.253 µM
61 | Cc1ccc(S(=O)(=O)N2CCCCC2CCNC(=O)C(=O)NCc2ccccc2)cc1 (configuration not stated) | 3.29 µM
62 | O=S1(=O)c2ccc(Br)cc2N2CCC[C@H]2CN1Cc1ccccc1 | 1.77 µM
63 | Oc1ccc2ccccc2c1/C=C/c1ccc2c(Br)cc(Br)c(O)c2n1 | 21.5 µM
64 | O=[N+]([O-])c1ccc(N2CCOCC2)c2c1no[n+]2[O-] | 2.76 µM
65 | COc1ccc(-c2cc(NC=O)c3ncc(-c4ccc(OC)c(OC)c4)n3c2)cc1 | 22.3 µM
66 | Cc1nc(/N=C(\N)NC(=O)NC2CCCCC2)nc2ccccc12 | 2.76 µM
67 | N#CC(C#N)=C1C=C2C=C(N3CCCCCC3)CCC2CC1 (configuration not stated) | 0.239 µM
68 | Cc1ccc(OCCNC(=O)c2cccc(S(=O)(=O)NCc3ccccc3)c2)cc1 | 1.64 µM
69 | O=C(NCc1ccccc1)C1Cc2c(-c3cccc(F)c3)ccnc2O1 (configuration not stated) | 0.893 µM
70 | Cc1cccc(NS(=O)(=O)c2ccc(-c3cnc(C4CC4)o3)cc2)c1 | 1.59 µM
71 | Cc1cc2c(cc1S(=O)(=O)Nc1ccc(F)cc1)n(C)c(=O)c(=O)n2C | 43.2 µM
72 | CN1/C(=C\C=C2/SC(=S)N(CC(=O)O)C2=O)C(C)(C)c2ccccc21 | 16 µM
73 | COc1cc2c(cc1OC)C(c1cccs1)N(C(=O)c1cccnc1)CC2 (configuration not stated) | 4.9 µM
74 | O=C(/C=C/c1ccco1)NC(=S)Nc1nc(-c2ccc3ccccc3c2)cs1 | 3.34 µM
75 | CC1(C(=O)NCc2ccco2)Cc2c(-c3ccc4c(c3)OCO4)ccnc2O1 (configuration not stated) | 1.88 µM
76 | CC(=NNC(=O)c1ccncc1)c1ccc2ccccc2c1O | 7.94 µM
77 | COc1ccccc1NS(=O)(=O)c1cc(-c2cnc(C3CC3)o2)ccc1C | 9.51 µM
78 | O=C1c2ccccc2C(=O)N1Cc1cnc(N2CCN(c3ccccc3)CC2)s1 | 44.1 µM
79 | COc1nc(N)nc(NC(=O)c2cccs2)c1N=O | 16 µM

Row | SMILES | AC50
80 | CCOC1=C2[C@@H](CN(S(=O)(=O)c3ccc(C)cc3)[C@H]2c2ccc(Cl)cc2)[C@H]2C(=O)N(c3ccccc3)C(=O)[C@H]2C1 | > 50 µM
81 | CCOc1ccc(-c2cc(C(=O)N3CCN(c4ccccn4)CC3)c3ccccc3n2)cc1 | 16 µM
82 | Nc1nn(-c2ccccc2)c(N)c1N=Nc1cccc(F)c1 | 2.04 µM
83 | CCOC1=C/C(=C/c2c(N)n3nc(S(=O)(=O)CC)sc3nc2=O)C=CC1=O | 24.9 µM
84 | N#CC(C#N)=C1C=C2C=C(N3CCOCC3)CCC2CC1 (configuration not stated) | 28.2 µM
85 | COc1cc(C(=O)OCCc2cc3ccccc3c(=O)o2)cc(OC)c1OC | 1.59 µM
86 | CCCC(=O)Nc1ccc2c(c1)nc(CN1CCN(C(=O)OCC)CC1)n2CC | 8.58 µM
87 | COc1cc2c(c(Br)c1N)-c1cc(Br)c(N)cc1C2=O | > 50 µM
88 | COc1cccc2c1C(=O)c1c(O)c3c(c(O)c1C2=O)C[C@](O)(C(C)=O)C[C@H]3O[C@@H]1C[C@@H](N)[C@@H](O)[C@@H](C)O1 | 7.44 µM
89 | O=c1ccc2[n+]([O-])c3ccc(O)cc3oc-2c1 | 26.3 µM
90 | COc1cc2c(cc1OC)C(C)N(C(=O)Nc1cc(C)cc(C)c1)CC2 (configuration not stated) | 3.03 µM
91 | CC(=O)c1cccc(-c2ccnc3c2CC(C(=O)NCc2ccco2)O3)c1 (configuration not stated) | 2.01 µM
92 | Cn1cccc1/C=C1\SC(=Nc2ccccc2)NC1=O | 2.89 µM
93 | CC(=O)Nc1ccc(NC(=O)COc2cccc3c2OC(C)(C)C3)cc1 | > 50 µM
94 | COc1ccc(-c2cc(=O)c3c(O)cc(O)cc3o2)cc1 | > 50 µM
95 | CCOc1cc(/C=N/NC(=O)N/N=C/c2ccc(O)c(OCC)c2)ccc1O | 4.92 µM
96 | COC(=O)c1cn(NC(=O)c2cc([N+](=O)[O-])ccc2F)c(=O)c2ccccc12 | 1.21 µM
97 | c1ccc2c(NCCCN3CCOCC3)c3ccccc3nc2c1 | 3.51 µM
98 | Cc1cc(NCc2ccccn2)n2ncc(-c3ccccc3)c2n1 | 15.9 µM
99 | O=S(=O)(Nc1ccc(F)cc1Cl)c1ccc(-c2cnc(C3CC3)o2)cc1 | 2.23 µM
100 | COc1ccccc1N1CCN(C(=O)c2ccc(-c3ccc(Cl)cc3)o2)CC1 | 6.64 µM
101 | COc1ccc([C@H]2C[C@H](O)[C@@H](n3cc(-c4ccc(F)cc4)nn3)CN2Cc2cccs2)cc1 | 16 µM
102 | COc1cccc2c1C(=O)c1c(O)c3c(c(O)c1C2=O)CC(O)(C(C)=O)CC3OC1CC(N(C)C)C(O)C(C)O1 (configuration not stated) | 14.8 µM
